Experimental data reported in BindingDB's records for doi:10.1021/acs.jmedchem.8b00082 (Abbvie, 2018).

Columns and labels:
[1] = Inhibition of NS5A in HuH7 cell infected HCV genotype 1b Con1 assessed as decrease in viral replication after 3 days by luciferase reporter gene assay
[2] = Inhibition of NS5A in HuH7 cell infected HCV genotype 1a H77 assessed as decrease in viral replication after 3 days by luciferase reporter gene assay
[3] = Inhibition of NS5A in HuH7 cell infected HCV genotype 1b Con1 assessed as decrease in viral replication after 3 days in presence of 40% human plasma by luciferase reporter gene assay
[4] = Inhibition of HCV genotype 1b Con1 NS5A expressed in HuH7 cell infected HCV genotype 4a assessed as decrease in viral replication after 3 days by luciferase reporter gene assay
[5] = Inhibition of HCV genotype 1b Con1 NS5A expressed in HuH7 cell infected HCV genotype 2a assessed as decrease in viral replication after 3 days by luciferase reporter gene assay
[6] = Inhibition of HCV genotype 1b Con1 NS5A expressed in HuH7 cell infected HCV genotype 3a assessed as decrease in viral replication after 3 days by luciferase reporter gene assay
[7] = Inhibition of HCV genotype 1b Con1 NS5A expressed in HuH7 cell infected HCV genotype 2b assessed as decrease in viral replication after 3 days by luciferase reporter gene assay
[8] = Inhibition of NS5A in HuH7 cell infected HCV genotype 1a H77 assessed as decrease in viral replication after 3 days in presence of 40% human plasma by luciferase reporter gene assay
[9] = Inhibition of HCV genotype 1b Con1 NS5A expressed in HuH7 cell infected HCV genotype 6a assessed as decrease in viral replication after 3 days by luciferase reporter gene assay
[10] = Inhibition of HCV genotype 1b Con1 NS5A expressed in HuH7 cell infected HCV genotype 5a assessed as decrease in viral replication after 3 days by luciferase reporter gene assay

SMILES	EC50 [1] [nM]	EC50 [2] [nM]	EC50 [3] [nM]	EC50 [4] [nM]	EC50 [5] [nM]	EC50 [6] [nM]	EC50 [7] [nM]	EC50 [8] [nM]	EC50 [9] [nM]	EC50 [10] [nM]
COC(=O)N[C@H](C(=O)N1CCC[C@H]1c1nc2ccc([C@H]3CC[C@H](c4ccc5nc([C@@H]6CCCN6C(=O)[C@@H](NC(=O)OC)C(C)C)[nH]c5c4)N3c3ccc(C4CCCCC4)cc3)cc2[nH]1)C(C)C	0.009	0.004	0.178	0.009	0.01	0.008	0.007	0.107		
COC(=O)N[C@H](C(=O)N1CCC[C@H]1c1nc2ccc([C@H]3CC[C@H](c4ccc5nc([C@@H]6CCCN6C(=O)[C@@H](NC(=O)OC)C(C)C)[nH]c5c4)N3c3ccc(N4CCC(c5ccccc5)CC4)cc3)cc2[nH]1)C(C)C	0.325	0.324	1.51	0.243	0.468	0.481	0.452	1.51	0.402	
COC(=O)N[C@H](C(=O)N1CCC[C@H]1c1nc2ccc([C@H]3CC[C@H](c4ccc5nc([C@@H]6CCCN6C(=O)[C@@H](NC(=O)OC)C(C)C)[nH]c5c4)N3c3ccc(N4CCOCC4)cc3)cc2[nH]1)C(C)C	0.382	0.379	2.07	0.316	0.598	1.2	0.96	0.902		
COC(=O)N[C@H](C(=O)N1CCC[C@H]1c1nc2cc(F)c([C@H]3CC[C@H](c4cc5[nH]c([C@@H]6CCCN6C(=O)[C@@H](NC(=O)OC)C(C)C)nc5cc4F)N3c3cc(F)c(N4CCC(c5ccc(F)cc5)CC4)c(F)c3)cc2[nH]1)C(C)C	0.003	0.001	0.172	0.001	0.003	0.001	0.002	0.07	0.003	0.001
COC(=O)N[C@H](C(=O)N1CCC[C@H]1c1nc2cc([C@H]3CC[C@H](c4ccc5[nH]c([C@@H]6CCCN6C(=O)[C@@H](NC(=O)OC)C(C)C)nc5c4)N3c3cc(F)c(N4CCCCC4)c(F)c3)ccc2[nH]1)C(C)C	0.006	0.005	0.241	0.005	0.013	0.008	0.007	0.151	0.007	
COC(=O)N[C@H](C(=O)N1CCC[C@H]1c1nc2ccc([C@H]3CC[C@H](c4ccc5nc([C@@H]6CCCN6C(=O)[C@@H](NC(=O)OC)C(C)C)[nH]c5c4)N3c3ccc(C(C)(C)C)cc3)cc2[nH]1)C(C)C	0.013	0.009	0.268	0.006	0.152	0.006	0.01	0.148		
COC(=O)N[C@H](C(=O)N1CCC[C@H]1c1nc2ccc([C@H]3CC[C@H](c4ccc5nc([C@@H]6CCCN6C(=O)[C@@H](NC(=O)OC)C(C)C)[nH]c5c4)N3c3ccc(Cl)cc3)cc2[nH]1)C(C)C	0.007	0.006	0.33	0.005	0.012	0.012	0.007	0.24	0.008	
COC(=O)N[C@H](C(=O)N1CCC[C@H]1c1nc2ccc([C@H]3CC[C@H](c4ccc5nc([C@@H]6CCCN6C(=O)[C@@H](NC(=O)OC)C(C)C)[nH]c5c4)N3c3ccc(-c4ccccc4)cc3)cc2[nH]1)C(C)C	0.003	0.004	0.108	0.006	0.011	0.016	0.009	0.075	0.011	
COC(=O)N[C@H](C(=O)N1CCC[C@H]1c1nc2cc(F)c([C@H]3CC[C@H](c4cc5[nH]c([C@@H]6CCCN6C(=O)[C@@H](NC(=O)OC)[C@@H](C)OC)nc5cc4F)N3c3cc(F)c(N4CCC(c5ccccc5)CC4)c(F)c3)cc2[nH]1)[C@@H](C)OC	0.003	0.001	0.138	0.003	0.003	0.003	0.003	0.043	0.004	0.002
COC(=O)N[C@H](C(=O)N1CCC[C@H]1C(=O)Nc1ccc([C@H]2CC[C@H](c3ccc(NC(=O)[C@@H]4CCCN4C(=O)[C@@H](NC(=O)OC)C(C)C)cc3)N2c2ccc(C(C)(C)C)cc2)cc1)C(C)C	0.009	0.136	0.09					0.986		
COC(=O)N[C@H](C(=O)N1CCC[C@H]1c1nc2ccc([C@H]3CC[C@H](c4ccc5nc([C@@H]6CCCN6C(=O)[C@@H](NC(=O)OC)C(C)C)[nH]c5c4)N3c3ccc(N4CCCCC4)c(F)c3)cc2[nH]1)C(C)C	0.029	0.018	0.383	0.017	0.048	0.044	0.03	0.199		
COC(=O)N[C@H](C(=O)N1CCC[C@H]1c1nc2ccc([C@H]3CC[C@H](c4ccc5nc([C@@H]6CCCN6C(=O)[C@@H](NC(=O)OC)C(C)C)[nH]c5c4)N3c3ccc(OC(F)(F)F)cc3)cc2[nH]1)C(C)C	0.012	0.019	0.23	0.013	0.043	0.018	0.012	0.276		
COC(=O)N[C@H](C(=O)N1CCC[C@H]1c1nc2ccc([C@H]3CC[C@H](c4ccc5nc([C@@H]6CCCN6C(=O)[C@@H](NC(=O)OC)C(C)C)[nH]c5c4)N3c3cc(Cl)c(N4CCCCC4)c(Cl)c3)cc2[nH]1)C(C)C	0.003	0.005	0.132	0.006	0.044	0.011	0.005	0.213	0.01	
COC(=O)N[C@H](C(=O)N1CCC[C@H]1c1nc2cc(F)c([C@H]3CC[C@H](c4cc5[nH]c([C@@H]6CCCN6C(=O)[C@@H](NC(=O)OC)C(C)C)nc5cc4F)N3c3cc(F)c(N4CCC(c5ccccc5)CC4)c(F)c3)cc2[nH]1)C(C)C	0.006	0.002	0.135	0.004	0.008	0.004	0.003	0.058	0.009	0.002
COC(=O)N[C@H](C(=O)N1CCC[C@H]1c1nc2ccc([C@H]3CC[C@H](c4ccc5nc([C@@H]6CCCN6C(=O)[C@@H](NC(=O)OC)C(C)C)[nH]c5c4)N3c3cc(F)c(N4CCC(c5ccc(F)cc5)CC4)c(F)c3)cc2[nH]1)C(C)C	0.008	0.003	0.126	0.009	0.02	0.013	0.013	0.078	0.021	
COC(=O)N[C@H](C(=O)N1CCC[C@H]1c1nc2ccc([C@H]3CC[C@H](c4ccc5nc([C@@H]6CCCN6C(=O)[C@@H](NC(=O)OC)C(C)C)[nH]c5c4)N3c3ccc(Oc4ccccc4)cc3)cc2[nH]1)C(C)C	0.02	0.012	0.279	0.005	0.012	0.011	0.008	0.155		
COC(=O)N[C@H](C(=O)N1CCC[C@H]1c1nc2ccc([C@H]3CC[C@H](c4ccc5nc([C@@H]6CCCN6C(=O)[C@@H](NC(=O)OC)C(C)C)[nH]c5c4)N3c3ccc(C4CC4)cc3)cc2[nH]1)C(C)C	0.023	0.012	0.354	0.02	0.041	0.026	0.02	0.161		
COC(=O)N[C@H](C(=O)N1CCC[C@H]1c1nc2ccc([C@@H]3CC[C@@H](c4ccc5nc([C@@H]6CCCN6C(=O)[C@@H](NC(=O)OC)C(C)C)[nH]c5c4)N3c3ccc(C(C)(C)C)cc3)cc2[nH]1)C(C)C	0.013	0.071	0.354					1.98		
COC(=O)N[C@H](C(=O)N1CCC[C@H]1c1nc2ccc([C@H]3CC[C@H](c4ccc5nc([C@@H]6CCCN6C(=O)[C@@H](NC(=O)OC)C(C)C)[nH]c5c4)N3c3ccc(F)cc3)cc2[nH]1)C(C)C	0.025	0.038	0.427	0.014	0.028	0.031	0.021	0.49	0.014	
COC(=O)N[C@H](C(=O)N1CCC[C@H]1c1nc2ccc([C@H]3CC[C@H](c4ccc5nc([C@@H]6CCCN6C(=O)[C@@H](NC(=O)OC)C(C)C)[nH]c5c4)N3c3ccc(N4CCOCC4)c(F)c3)cc2[nH]1)C(C)C	0.196	0.189	0.915	0.17	0.307	0.355	0.229	0.474		
